Measured values: PubChem BioAssay AID1963432 (Molecular Pharmacology Branch, DTP, NCI, 2024)

Test system: SYO-1 complex spheroid growth, percent test/control
Test: Anticancer human tumor SYO-1 cell line growth inhibition [Asc];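 further: compound exposure lasted 7 days after spheroids grew 3 days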;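 on viability, T/C: 100% = DMSO vehicle control viability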
Details: for IC50: curve of first compound; for viability, T/C: stronger effect = lower value
Outline: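 Complex spheroids combining tumor cells with HUVEC endothelial cells and human MSCs, at 37 degrees C, 5% CO2; agents tested alone or combined, half-log dilutions from at or near clinical Cmax, or 10 microM if Cmax unknown.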

[1] = second compound 0.01 µM, first compound 0.00316 µM
[2] = second compound 0.01 µM, first compound 0.01 µM
[3] = second compound 0.01 µM, first compound 0.0316 µM
[4] = second compound 0.01 µM, first compound 0.1 µM
[5] = second compound 0.0316 µM, first compound 0.00316 µM
[6] = second compound 0.0316 µM, first compound 0.01 µM
[7] = second compound 0.0316 µM, first compound 0.0316 µM
[8] = second compound 0.0316 µM, first compound 0.1 µM
[9] = second compound 0.1 µM, first compound 0.00316 µM
[10] = second compound 0.1 µM, first compound 0.01 µM
[11] = second compound 0.1 µM, first compound 0.0316 µM
[12] = second compound 0.1 µM, first compound 0.1 µM
[13] = second compound 0.316 µM, first compound 0.00316 µM
[14] = second compound 0.316 µM, first compound 0.01 µM
[15] = second compound 0.316 µM, first compound 0.0316 µM
[16] = second compound 0.316 µM, first compound 0.1 µM
[17] = second compound 1 µM, first compound 0.00316 µM
[18] = second compound 1 µM, first compound 0.01 µM
[19] = second compound 1 µM, first compound 0.0316 µM
[20] = second compound 1 µM, first compound 0.1 µM

| SMILES | IC50 (second compound 0.01 µM) | IC50 (second compound 0.0316 µM) | IC50 (second compound 0.1 µM) | IC50 (second compound 0.316 µM) | IC50 (second compound 1 µM) | viability, T/C [1] | viability, T/C [2] | viability, T/C [3] | viability, T/C [4] | viability, T/C [5] | viability, T/C [6] | viability, T/C [7] | viability, T/C [8] | viability, T/C [9] | viability, T/C [10] | viability, T/C [11] | viability, T/C [12] | viability, T/C [13] | viability, T/C [14] | viability, T/C [15] | further results |
| --- | --- | --- | --- | --- | --- | --- | --- | --- | --- | --- | --- | --- | --- | --- | --- | --- | --- | --- | --- | --- | --- |
| Cn1ncnc1[C@H]1c2n[nH]c(=O)c3cc(F)cc(c23)N[C@@H]1c1ccc(F)cc1 + CNC(C)C(=O)NC1CN(S(=O)(=O)c2cccc(S(=O)(=O)N3CCC4CCC(C(=O)NC(c5ccccc5)c5ccccc5)N4C(=O)C(NC(=O)C(C)NC)C3)c2)CCC2CCC(C(=O)NC(c3ccccc3)c3ccccc3)N2C1=O | > 100 nM | > 100 nM | > 100 nM | > 100 nM | > 100 nM | 103% | 91.8% | 76.8% | 82.9% | 103% | 98.3% | 75.8% | 86.3% | 96.8% | 93.4% | 75.4% | 86.3% | 95% | 92.1% | 66.8% | viability, T/C (second compound 0.01 µM, first compound 0.000316 µM): 107%; viability, T/C (second compound 0.01 µM, first compound 0.001 µM): 106%; viability, T/C (second compound 0.0316 µM, first compound 0.000316 µM): 101%; viability, T/C (second compound 0.0316 µM, first compound 0.001 µM): 102%; viability, T/C (second compound 0.1 µM, first compound 0.000316 µM): 108%; viability, T/C (second compound 0.1 µM, first compound 0.001 µM): 93.6%; viability, T/C (second compound 0.316 µM, first compound 0.000316 µM): 112%; viability, T/C (second compound 0.316 µM, first compound 0.001 µM): 103%; viability, T/C [16]: 86.4%; viability, T/C (second compound 1 µM, first compound 0.000316 µM): 98.2%; viability, T/C (second compound 1 µM, first compound 0.001 µM): 107%; viability, T/C [17]: 96.3%; viability, T/C [18]: 93.6%; viability, T/C [19]: 78.9%; viability, T/C [20]: 85.7% |
| O=C(c1ccc(F)c(F)c1Nc1ccc(I)cc1F)N1CC(O)([C@@H]2CCCCN2)C1 + CNC(C)C(=O)NC1CN(S(=O)(=O)c2cccc(S(=O)(=O)N3CCC4CCC(C(=O)NC(c5ccccc5)c5ccccc5)N4C(=O)C(NC(=O)C(C)NC)C3)c2)CCC2CCC(C(=O)NC(c3ccccc3)c3ccccc3)N2C1=O | > 1000 nM | > 1000 nM | > 1000 nM | > 1000 nM | > 1000 nM | 97.8% | 105% | 102% | 98.1% | 106% | 106% | 95.2% | 95.2% | 99.5% | 106% | 105% | 92.1% | 113% | 104% | 99.6% | viability, T/C (second compound 0.01 µM, first compound 0.316 µM): 97.6%; viability, T/C (second compound 0.01 µM, first compound 1 µM): 103%; viability, T/C (second compound 0.0316 µM, first compound 0.316 µM): 95%; viability, T/C (second compound 0.0316 µM, first compound 1 µM): 94.5%; viability, T/C (second compound 0.1 µM, first compound 0.316 µM): 96.9%; viability, T/C (second compound 0.1 µM, first compound 1 µM): 93.6%; viability, T/C [16]: 96%; viability, T/C (second compound 0.316 µM, first compound 0.316 µM): 99.8%; viability, T/C (second compound 0.316 µM, first compound 1 µM): 97.8%; viability, T/C [17]: 97.7%; viability, T/C [18]: 103%; viability, T/C [19]: 113%; viability, T/C [20]: 98.4%; viability, T/C (second compound 1 µM, first compound 0.316 µM): 92.4%; viability, T/C (second compound 1 µM, first compound 1 µM): 91.2% |
